{"source": "paper PMC8708751", "about": "“Hit Identification of a Novel Quinazoline Sulfonamide as a Promising EphB3 Inhibitor: Design, Virtual Combinatorial Library, Synthesis, Biological Evaluation, and Docking Simulation Studies” (Pharmaceuticals, 2021)", "key": {"[1]": {"target": "T1, ERBB2/HER2 (Homo sapiens, UniProt P04626)", "T1 construct": "purchased Reaction Biology Co. (Kinase HotSpot service)", "T1 sequence (P04626 23-1255)": "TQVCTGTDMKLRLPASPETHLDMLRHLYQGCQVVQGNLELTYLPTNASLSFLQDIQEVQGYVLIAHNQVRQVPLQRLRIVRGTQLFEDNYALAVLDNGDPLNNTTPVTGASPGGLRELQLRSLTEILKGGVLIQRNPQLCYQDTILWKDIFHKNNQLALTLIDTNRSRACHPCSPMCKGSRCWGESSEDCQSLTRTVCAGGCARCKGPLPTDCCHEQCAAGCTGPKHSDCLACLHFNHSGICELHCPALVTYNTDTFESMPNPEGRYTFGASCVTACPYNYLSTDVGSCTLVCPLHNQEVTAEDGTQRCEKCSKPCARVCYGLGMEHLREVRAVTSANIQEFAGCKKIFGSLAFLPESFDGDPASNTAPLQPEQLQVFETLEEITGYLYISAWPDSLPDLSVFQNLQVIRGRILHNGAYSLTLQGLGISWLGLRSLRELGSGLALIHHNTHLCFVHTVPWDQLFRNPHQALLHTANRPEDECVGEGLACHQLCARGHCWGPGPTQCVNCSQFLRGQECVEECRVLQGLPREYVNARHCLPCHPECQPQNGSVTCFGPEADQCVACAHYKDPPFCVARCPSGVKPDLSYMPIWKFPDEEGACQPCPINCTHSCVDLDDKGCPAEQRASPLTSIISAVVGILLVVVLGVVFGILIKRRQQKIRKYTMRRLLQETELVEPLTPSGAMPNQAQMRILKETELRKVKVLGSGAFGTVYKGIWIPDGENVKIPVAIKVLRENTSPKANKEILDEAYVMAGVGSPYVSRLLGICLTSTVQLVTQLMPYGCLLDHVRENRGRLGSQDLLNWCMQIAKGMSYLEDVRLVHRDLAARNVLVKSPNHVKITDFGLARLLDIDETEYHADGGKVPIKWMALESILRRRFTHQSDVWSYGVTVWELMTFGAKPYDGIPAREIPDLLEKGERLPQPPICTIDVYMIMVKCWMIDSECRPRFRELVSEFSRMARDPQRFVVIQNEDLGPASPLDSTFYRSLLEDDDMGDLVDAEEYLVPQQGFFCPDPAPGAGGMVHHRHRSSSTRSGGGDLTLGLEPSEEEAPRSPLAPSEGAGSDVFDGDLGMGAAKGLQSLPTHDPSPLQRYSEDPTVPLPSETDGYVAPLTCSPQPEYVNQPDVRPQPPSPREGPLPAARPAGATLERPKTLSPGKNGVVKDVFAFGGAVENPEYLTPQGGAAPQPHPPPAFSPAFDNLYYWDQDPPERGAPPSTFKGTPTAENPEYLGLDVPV", "assay": "Kinase panel assay, ERBB2/HER2", "format": "biochemical", "details": "ERBB2/HER2, 10 µM; read-out: Average % Enzyme Inhibition (Relative to DMSO Controls) at 10 µM", "experimental": "(§1) The screening of the tested compounds was performed using the Kinase HotSpot^SM service from Reaction Biology Co. (http://www.reactionbiology.com, accessed on 25 September 2021). The HotSpot assay platform contains specific kinase/substrate pairs along with required cofactors. Base reaction buffer: 20 mM Hepes (pH 7.5), 10 mM MgCl2, 1 mM EGTA, 0.02% Brij35, 0.02 mg/mL BSA, 0.1 mM Na3VO4, 2 mM DTT, 1% DMSO. The tested compounds were dissolved in 100% DMSO to specific concentration. The serial dilution was conducted by Integra Viaflo Assist in DMSO (Sigma-Aldrich, Burlington, MA, USA). The reaction mixture containing the examined compound and 33P-ATP was incubated at room temperature for 2 h, and radioactivity was detected by filter-binding method. Kinase activity data were expressed as the percent remaining kinase activity in test samples compared to vehicle (dimethyl sulfoxide) reactions. IC50 values and curve fits were obtained using Prism (GraphPad Software, San Diego, CA, USA)."}, "[2]": {"target": "T2, Aurora A (Homo sapiens, UniProt O14965)", "T2 construct": "purchased Reaction Biology Co. (Kinase HotSpot service)", "T2 sequence (O14965 1-403)": "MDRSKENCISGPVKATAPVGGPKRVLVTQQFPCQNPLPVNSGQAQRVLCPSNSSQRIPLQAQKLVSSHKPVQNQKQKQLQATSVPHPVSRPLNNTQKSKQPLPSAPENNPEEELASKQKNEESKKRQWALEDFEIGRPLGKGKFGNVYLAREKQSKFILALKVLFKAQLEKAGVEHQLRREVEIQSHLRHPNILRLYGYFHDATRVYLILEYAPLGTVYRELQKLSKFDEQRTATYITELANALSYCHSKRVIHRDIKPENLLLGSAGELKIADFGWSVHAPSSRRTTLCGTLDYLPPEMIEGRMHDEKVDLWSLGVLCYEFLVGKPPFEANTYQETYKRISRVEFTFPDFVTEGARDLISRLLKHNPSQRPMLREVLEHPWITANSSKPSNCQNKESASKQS", "assay": "Kinase panel assay, Aurora A", "format": "biochemical", "details": "read-out: Average % Enzyme Inhibition (Relative to DMSO Controls) at 10 µM", "experimental": "as §1"}, "[3]": {"target": "T3, EGFR kinase (Homo sapiens, UniProt P00533)", "T3 construct": "purchased Reaction Biology Co. (Kinase HotSpot service)", "T3 sequence (P00533 25-1210)": "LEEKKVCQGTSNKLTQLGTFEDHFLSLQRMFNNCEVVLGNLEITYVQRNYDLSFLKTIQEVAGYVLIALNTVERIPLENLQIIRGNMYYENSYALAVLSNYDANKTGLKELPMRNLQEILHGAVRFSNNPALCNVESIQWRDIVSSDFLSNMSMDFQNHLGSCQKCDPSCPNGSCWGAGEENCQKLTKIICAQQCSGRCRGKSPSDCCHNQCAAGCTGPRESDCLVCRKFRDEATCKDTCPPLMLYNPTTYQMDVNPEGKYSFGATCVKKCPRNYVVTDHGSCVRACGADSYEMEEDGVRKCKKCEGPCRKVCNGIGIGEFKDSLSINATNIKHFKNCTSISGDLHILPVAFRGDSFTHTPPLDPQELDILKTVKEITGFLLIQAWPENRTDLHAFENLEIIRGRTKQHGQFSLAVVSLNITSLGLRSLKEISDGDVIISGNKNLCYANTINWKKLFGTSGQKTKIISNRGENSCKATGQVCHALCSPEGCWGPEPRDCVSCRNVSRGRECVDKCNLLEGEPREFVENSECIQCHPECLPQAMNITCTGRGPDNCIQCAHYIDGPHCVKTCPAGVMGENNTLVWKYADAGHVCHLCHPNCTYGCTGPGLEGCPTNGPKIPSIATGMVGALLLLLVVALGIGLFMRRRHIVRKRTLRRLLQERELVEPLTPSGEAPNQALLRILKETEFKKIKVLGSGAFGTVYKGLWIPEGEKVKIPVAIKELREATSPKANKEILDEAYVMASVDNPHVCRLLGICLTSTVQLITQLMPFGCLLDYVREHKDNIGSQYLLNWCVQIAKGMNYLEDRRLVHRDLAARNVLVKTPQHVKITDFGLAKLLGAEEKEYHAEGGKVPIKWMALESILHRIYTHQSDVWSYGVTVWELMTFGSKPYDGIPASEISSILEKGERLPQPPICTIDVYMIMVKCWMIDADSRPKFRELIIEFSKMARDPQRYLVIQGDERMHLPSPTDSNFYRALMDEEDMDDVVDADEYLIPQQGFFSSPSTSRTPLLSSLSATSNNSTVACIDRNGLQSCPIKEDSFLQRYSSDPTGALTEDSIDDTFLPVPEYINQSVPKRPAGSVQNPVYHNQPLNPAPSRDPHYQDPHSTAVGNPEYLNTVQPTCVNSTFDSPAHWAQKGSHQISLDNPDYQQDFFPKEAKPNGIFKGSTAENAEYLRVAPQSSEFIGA", "assay": "EGFR kinase inhibition assay (HotSpot)", "format": "biochemical"}, "[4]": {"target": "T4, CDK2/cyclin A (Homo sapiens, UniProt P24941)", "T4 construct": "purchased Reaction Biology Co. (Kinase HotSpot service)", "assay": "Kinase panel assay, CDK2/cyclin A", "format": "biochemical", "details": "read-out: Average % Enzyme Inhibition (Relative to DMSO Controls) at 10 µM", "experimental": "as §1"}, "[5]": {"target": "T5, EphB3 kinase (Homo sapiens, UniProt P54753)", "T5 construct": "purchased Reaction Biology Co. (Kinase HotSpot service)", "T5 sequence (P54753 34-998)": "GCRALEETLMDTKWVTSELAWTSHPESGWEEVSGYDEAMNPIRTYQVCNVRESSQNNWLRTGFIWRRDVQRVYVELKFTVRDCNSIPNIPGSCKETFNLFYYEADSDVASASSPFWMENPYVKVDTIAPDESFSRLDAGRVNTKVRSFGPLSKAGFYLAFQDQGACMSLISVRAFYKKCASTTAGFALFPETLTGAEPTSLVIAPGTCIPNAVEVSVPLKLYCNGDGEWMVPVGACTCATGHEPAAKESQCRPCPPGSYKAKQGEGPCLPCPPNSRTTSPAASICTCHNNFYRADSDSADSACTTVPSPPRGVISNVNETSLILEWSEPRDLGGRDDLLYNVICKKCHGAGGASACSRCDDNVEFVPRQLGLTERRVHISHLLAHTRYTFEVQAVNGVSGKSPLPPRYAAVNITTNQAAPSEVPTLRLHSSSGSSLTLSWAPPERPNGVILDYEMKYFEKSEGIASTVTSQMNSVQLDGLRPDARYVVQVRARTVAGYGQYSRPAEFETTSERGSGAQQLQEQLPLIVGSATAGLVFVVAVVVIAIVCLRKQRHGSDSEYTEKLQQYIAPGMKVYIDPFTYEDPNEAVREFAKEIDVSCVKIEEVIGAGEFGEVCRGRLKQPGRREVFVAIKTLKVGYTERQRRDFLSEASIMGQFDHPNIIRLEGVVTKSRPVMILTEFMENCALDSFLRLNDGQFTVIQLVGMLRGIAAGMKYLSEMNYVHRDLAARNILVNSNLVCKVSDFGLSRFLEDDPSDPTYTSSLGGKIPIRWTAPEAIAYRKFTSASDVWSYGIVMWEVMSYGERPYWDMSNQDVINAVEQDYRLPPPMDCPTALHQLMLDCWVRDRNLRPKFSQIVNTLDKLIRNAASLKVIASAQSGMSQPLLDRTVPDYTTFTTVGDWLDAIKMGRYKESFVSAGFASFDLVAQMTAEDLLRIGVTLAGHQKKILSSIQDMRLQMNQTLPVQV", "assay": "EphB3 kinase inhibition assay (HotSpot)", "format": "biochemical", "experimental": "The synthesized compounds were subjected to in vitro screening over EphB3 kinase. A single dose of 10 µM concentration of each target compound was used in EphB3 kinase inhibition assay, at 10 µM ATP, applying HotSpot^SM technology.\nas §1, with “The” for “The screening of the tested compounds was performed using the Kinase HotSpot^SM service from Reaction Biology Co. (http://www.reactionbiology.com, accessed on 25 September 2021). The”"}}, "note": "Where two headings read alike, the source gives them in different places.", "data": [{"smiles": "NS(=O)(=O)c1ccc(Nc2ncnc3ccc(-c4cccc(O)c4)cc23)cc1", "note": "[Compound 4c, 4-((6-(3-Hydroxyphenyl)quinazolin-4-yl)amino)benzenesulfonamide]", "values": [{"measurement": "inhibition at 10 µM", "setting": "[1]", "result": "67.8 ± 0.99", "unit": "%"}, {"measurement": "inhibition at 10 µM", "setting": "[2]", "result": "67.9 ± 4.93", "unit": "%"}, {"measurement": "inhibition at 10 µM", "setting": "[3]; EGFR kinase, 10 µM compound, 10 µM ATP as printed, read-out: Average % Enzyme Inhibition (Relative to DMSO Controls) at 10 µM", "result": "46.8 ± 0.54", "unit": "%"}, {"measurement": "IC50", "setting": "[3]; EGFR kinase, dose dependent assay, read-out: IC50", "result": 8.04, "unit": "µM"}, {"measurement": "IC50", "setting": "[3]; EGFR, read-out: EC50 of the curve fit printed in Figure 6 (IC50 per legend)", "result": 8.04, "unit": "µM"}, {"measurement": "melting point", "result": "313.2 to 315.1", "unit": "°C"}, {"measurement": "inhibition at 10 µM", "setting": "[4]", "result": "75 ± 2.07", "unit": "%"}, {"measurement": "inhibition at 10 µM", "setting": "[5]; EphB3 kinase, 10 µM compound, 10 µM ATP, read-out: Average % Enzyme Inhibition at 10 µM (Relative to DMSO Control)", "result": "> 93", "unit": "%"}, {"measurement": "IC50", "setting": "[5]; EphB3 kinase, dose dependent assay, read-out: IC50", "result": 1.04, "unit": "µM"}, {"measurement": "IC50", "setting": "[5]; EphB3 kinase, read-out: EC50 of the curve fit printed in Figure 5 (IC50 per legend)", "result": 1.04, "unit": "µM"}, {"measurement": "selectivity for EphB3 over EphB1 isoform", "setting": "[5]; from IC50 values, EphB3 over EphB1", "result": "six"}]}]}
